# Reference: ChEMBL document CHEMBL1201862, “PubChem BioAssay data set” (2004)
# Activity calls are given as the source filed them.
# How the values were obtained:
# [1] = cytotoxicity in HEK-293T cells, dose response, cytotoxicity control for TCR NF-kB inhibitor project, luminescence, T-cell screen hits (AID 489026); assay type: functional, cell-based;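 also: cells exposed to compound about 14 hours before the viability readout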
# [2] = target: T1, Rac GTPase-activating protein 1 (Homo sapiens, UniProt Q9H0H5); test: MgcRacGAP GTPase-activating activity inhibitors, confirmation, biochemical, ADP Hunter fluorescence, primary and confirmatory (AID 624330); assay type: functional
# T1 sequence (Q9H0H5 whole entry): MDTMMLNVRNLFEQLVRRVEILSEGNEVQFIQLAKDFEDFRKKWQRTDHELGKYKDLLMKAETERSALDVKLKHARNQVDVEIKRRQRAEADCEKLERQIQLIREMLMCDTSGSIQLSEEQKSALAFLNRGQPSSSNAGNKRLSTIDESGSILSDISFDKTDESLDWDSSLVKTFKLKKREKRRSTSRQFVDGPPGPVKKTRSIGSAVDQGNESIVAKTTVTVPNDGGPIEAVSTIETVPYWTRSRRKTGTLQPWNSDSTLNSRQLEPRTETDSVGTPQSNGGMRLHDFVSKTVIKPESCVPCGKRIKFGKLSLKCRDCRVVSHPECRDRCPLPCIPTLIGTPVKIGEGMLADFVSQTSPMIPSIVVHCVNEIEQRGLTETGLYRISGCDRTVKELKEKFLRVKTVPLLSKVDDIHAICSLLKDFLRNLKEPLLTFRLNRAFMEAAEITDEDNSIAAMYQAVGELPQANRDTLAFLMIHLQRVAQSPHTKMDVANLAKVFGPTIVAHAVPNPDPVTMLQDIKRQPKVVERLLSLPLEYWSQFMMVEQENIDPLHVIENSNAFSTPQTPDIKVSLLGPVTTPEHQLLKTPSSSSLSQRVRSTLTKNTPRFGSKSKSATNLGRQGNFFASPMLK
# [3] = HeLa cell cytotoxicity, dose response, cytotoxicity control for MgcRacGAP inhibitor project (AID 624300); assay type: functional
# HEK293 [4] = test: cells; conditions: Homo sapiens
# [5] = Luminescence Cell-Based Dose Confirmation HTS to Identify Activators of 5'UTR Stem-Loop Driven Alpha-Synuclein mRNA Translation in H4 Neuroglioblastoma Cells. [Related pubchem assays: 1829 (Project Summary), 1814 (Primary HTS)]; assay type: functional
# Vero = test: cells; assay type: functional; conditions: Chlorocebus sabaeus
# [6] = target: DNA damage-inducible transcript 3 protein (Mus musculus, UniProt P35639); assay type: functional, Cricetulus griseus
# DNA damage-inducible transcript 3 protein, sequence (P35639 whole entry): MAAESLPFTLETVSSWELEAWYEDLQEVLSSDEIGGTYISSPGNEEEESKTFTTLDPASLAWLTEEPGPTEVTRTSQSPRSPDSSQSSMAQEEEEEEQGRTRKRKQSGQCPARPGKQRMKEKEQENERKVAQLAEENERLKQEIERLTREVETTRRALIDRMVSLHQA
# X-box-binding protein 1 = X-box-binding protein 1 (Homo sapiens, UniProt P17861); assay type: functional, Cricetulus griseus;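 also: confirmatory dose-response counter-screen serving a CHOP assay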
# X-box-binding protein 1, sequence (P17861 whole entry): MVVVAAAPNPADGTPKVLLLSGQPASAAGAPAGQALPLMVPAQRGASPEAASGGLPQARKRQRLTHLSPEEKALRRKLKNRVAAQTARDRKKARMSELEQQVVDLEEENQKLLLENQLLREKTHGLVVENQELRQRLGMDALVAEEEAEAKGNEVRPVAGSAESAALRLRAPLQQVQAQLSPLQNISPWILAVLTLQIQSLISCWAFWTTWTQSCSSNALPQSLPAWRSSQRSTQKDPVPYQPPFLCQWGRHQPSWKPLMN
# H4 = test: Luminescence Cell-Based Dose Response HTS to Identify Activators of 5'UTR Stem-Loop Driven Prion Protein mRNA Translation in H4 Neuroglioblastoma Cells. [Related pubchem assays: 1829 (Project Summary), 1814 (Primary HTS)]; assay type: functional; conditions: Homo sapiens
# [7] = target: Dual specificity tyrosine-phosphorylation-regulated kinase 1A (Rattus norvegicus, UniProt Q63470); assay type: biochemical, Homo sapiens
# HEK293 [8] = test: cells; conditions: Homo sapiens; remark: listed apart in the source
# [9] = Luminescence Cell-Based Dose Response HTS to Identify Activators of Luciferase Translation or Activity in H4 […] Cells. [Related pubchem assays: 1829 (Project Summary), 1814 (Primary HTS)]; assay type: functional
# [10] = cytotoxicity toward NIH3T3 fibroblasts, dose response, counter-screen, cell-based, ATP luminescence, mouse fibroblasts (AID 2010); assay type: functional;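 also: cells exposed to compound for about 90 hours before reading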
# A-375 = test: A375 melanoma cell viability reduction, dose response, counter-screen for MITF modulator project, cherry-pick samples, set 2 (AID 540335); assay type: functional, cell-based; conditions: Homo sapiens
# [11] = inhibitors of intracellular T. cruzi replication, confirmation, NIH3T3 host cells, beta-gal luminescence (AID 2044); assay type: functional, cell-based;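 also: intracellular parasites grown in NIH/3T3 mouse fibroblasts as host cells; luminescent beta-galactosidase reporter signal from transgenic T. cruzi replicating inside host cells; inhibitors lower the luminescence signal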
# [12] = target: T2, Microphthalmia-associated transcription factor (Homo sapiens, UniProt O75030); test: TRPM1 promoter luciferase signal decrease, dose response, MITF inhibitor project, cell-based, SK-MEL-5, cherry-picked, set 3 (AID 493073); assay type: functional
# T2 sequence (O75030 whole entry): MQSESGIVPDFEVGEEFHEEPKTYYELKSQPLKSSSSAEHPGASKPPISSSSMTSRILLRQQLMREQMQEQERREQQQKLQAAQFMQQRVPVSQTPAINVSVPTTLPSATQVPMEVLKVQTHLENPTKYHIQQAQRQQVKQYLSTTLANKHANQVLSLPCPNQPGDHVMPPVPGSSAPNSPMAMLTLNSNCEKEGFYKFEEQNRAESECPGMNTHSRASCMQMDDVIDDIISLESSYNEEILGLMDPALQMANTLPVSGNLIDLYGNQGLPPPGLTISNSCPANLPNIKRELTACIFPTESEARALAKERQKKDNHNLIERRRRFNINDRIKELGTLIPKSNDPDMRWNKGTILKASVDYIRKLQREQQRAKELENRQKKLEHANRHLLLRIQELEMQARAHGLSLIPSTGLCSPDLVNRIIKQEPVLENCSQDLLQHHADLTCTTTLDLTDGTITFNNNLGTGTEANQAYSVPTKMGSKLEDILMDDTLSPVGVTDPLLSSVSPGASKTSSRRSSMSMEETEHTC
# [13] = insulin promoter down-regulators in MIN6 cells, imaging, high-content screening, mouse beta cells (AID 1628); assay type: functional
# [14] = target: T3, High affinity choline transporter 1 (Homo sapiens, UniProt Q9GZV3); test: CHT inhibitors, dose response, cell-based, 5-point CRC, membrane potential dye (AID 504840); assay type: functional
# T3 sequence (Q9GZV3 whole entry): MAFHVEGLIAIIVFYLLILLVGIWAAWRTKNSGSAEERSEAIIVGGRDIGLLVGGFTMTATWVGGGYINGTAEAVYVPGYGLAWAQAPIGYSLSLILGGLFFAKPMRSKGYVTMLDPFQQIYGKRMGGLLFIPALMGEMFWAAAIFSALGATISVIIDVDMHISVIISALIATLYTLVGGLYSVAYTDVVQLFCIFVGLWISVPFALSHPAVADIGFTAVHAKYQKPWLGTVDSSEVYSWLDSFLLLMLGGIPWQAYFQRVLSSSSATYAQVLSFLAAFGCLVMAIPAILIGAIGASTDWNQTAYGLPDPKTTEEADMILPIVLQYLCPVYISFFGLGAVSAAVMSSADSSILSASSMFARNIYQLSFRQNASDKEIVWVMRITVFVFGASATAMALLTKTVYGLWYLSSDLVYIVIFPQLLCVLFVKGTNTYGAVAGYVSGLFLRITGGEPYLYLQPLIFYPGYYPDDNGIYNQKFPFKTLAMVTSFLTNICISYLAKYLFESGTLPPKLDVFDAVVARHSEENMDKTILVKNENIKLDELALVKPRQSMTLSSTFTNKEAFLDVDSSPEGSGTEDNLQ
# [15] = cytotoxicity in MIN6 insulinoma cells, dose response, cytotoxicity control, cell-based, mouse insulinoma (AID 2122); assay type: functional;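 also: confirmatory high-throughput counterscreen run to flag cytotoxic compounds; mouse MIN-6 beta cells carrying an insulin promoter eGFP reporter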
# [16] = target: Ras and Rab interactor 1/Tyrosine-protein kinase ABL1 (Homo sapiens, UniProt P00519+Q13671); assay type: functional;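 also: biochemical TR-FRET dose-response test measuring inhibition of binding between Rin1 and Abl proteins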
# Ras and Rab interactor 1/Tyrosine-protein kinase ABL1, sequence (P00519 whole entry): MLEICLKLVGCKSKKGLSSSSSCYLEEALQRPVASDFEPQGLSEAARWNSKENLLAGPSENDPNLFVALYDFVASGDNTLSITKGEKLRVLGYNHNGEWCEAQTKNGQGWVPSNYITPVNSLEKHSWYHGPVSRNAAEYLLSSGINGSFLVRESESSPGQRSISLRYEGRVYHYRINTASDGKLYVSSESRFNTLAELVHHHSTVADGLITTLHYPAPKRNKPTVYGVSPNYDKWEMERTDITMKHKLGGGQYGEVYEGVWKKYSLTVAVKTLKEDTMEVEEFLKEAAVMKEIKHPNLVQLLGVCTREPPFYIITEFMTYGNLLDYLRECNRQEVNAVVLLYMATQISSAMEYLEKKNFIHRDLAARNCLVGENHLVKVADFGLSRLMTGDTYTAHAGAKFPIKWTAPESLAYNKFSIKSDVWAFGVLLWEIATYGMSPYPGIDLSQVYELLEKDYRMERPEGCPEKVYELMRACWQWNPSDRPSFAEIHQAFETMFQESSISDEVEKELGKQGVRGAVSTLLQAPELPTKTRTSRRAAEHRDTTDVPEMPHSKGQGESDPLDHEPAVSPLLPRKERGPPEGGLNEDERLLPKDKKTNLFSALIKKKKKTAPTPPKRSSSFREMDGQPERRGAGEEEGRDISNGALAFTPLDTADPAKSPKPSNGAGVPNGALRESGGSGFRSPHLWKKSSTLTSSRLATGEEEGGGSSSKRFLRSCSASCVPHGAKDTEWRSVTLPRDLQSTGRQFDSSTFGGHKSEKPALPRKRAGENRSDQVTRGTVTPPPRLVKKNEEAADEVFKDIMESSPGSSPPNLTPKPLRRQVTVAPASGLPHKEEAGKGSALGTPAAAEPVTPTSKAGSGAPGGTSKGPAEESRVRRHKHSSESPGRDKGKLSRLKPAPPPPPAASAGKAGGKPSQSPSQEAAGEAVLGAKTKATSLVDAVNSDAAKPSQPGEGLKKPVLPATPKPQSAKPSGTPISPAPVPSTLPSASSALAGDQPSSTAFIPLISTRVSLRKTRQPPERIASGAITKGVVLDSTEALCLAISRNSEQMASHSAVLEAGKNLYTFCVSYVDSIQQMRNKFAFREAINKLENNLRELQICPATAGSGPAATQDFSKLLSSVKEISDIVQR
# Ras and Rab interactor 1/Tyrosine-protein kinase ABL1, sequence (Q13671 whole entry): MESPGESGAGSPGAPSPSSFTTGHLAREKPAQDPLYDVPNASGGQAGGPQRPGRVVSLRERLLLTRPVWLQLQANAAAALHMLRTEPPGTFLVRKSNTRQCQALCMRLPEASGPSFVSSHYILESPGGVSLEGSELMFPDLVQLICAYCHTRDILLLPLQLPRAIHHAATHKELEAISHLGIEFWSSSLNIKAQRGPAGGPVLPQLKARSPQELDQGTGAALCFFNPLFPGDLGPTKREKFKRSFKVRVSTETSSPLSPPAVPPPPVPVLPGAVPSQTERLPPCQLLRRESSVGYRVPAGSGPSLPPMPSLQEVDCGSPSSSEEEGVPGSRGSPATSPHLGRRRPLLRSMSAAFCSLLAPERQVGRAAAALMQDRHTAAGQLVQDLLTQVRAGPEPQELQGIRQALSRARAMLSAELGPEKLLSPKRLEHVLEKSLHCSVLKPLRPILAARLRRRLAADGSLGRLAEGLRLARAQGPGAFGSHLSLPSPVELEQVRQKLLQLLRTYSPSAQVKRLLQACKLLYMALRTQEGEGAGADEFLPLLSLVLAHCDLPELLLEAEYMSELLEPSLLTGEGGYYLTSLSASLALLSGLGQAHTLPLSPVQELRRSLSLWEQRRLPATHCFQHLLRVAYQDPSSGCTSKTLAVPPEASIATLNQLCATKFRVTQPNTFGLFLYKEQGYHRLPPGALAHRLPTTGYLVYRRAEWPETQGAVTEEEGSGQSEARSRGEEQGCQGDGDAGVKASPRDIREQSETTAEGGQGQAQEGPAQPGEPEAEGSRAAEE
# [17] = target: Adenosylmethionine-8-amino-7-oxononanoate aminotransferase (Mycobacterium tuberculosis, UniProt P9WQ81); test: Mycobacterium tuberculosis BioA enzyme inhibitor Measured in Biochemical System Using Plate Reader - 2163-02_Inhibitor_Dose_CherryPick_Activity.; assay type: functional, Mycobacterium tuberculosis UT205
# Adenosylmethionine-8-amino-7-oxononanoate aminotransferase, sequence (P9WQ81 whole entry): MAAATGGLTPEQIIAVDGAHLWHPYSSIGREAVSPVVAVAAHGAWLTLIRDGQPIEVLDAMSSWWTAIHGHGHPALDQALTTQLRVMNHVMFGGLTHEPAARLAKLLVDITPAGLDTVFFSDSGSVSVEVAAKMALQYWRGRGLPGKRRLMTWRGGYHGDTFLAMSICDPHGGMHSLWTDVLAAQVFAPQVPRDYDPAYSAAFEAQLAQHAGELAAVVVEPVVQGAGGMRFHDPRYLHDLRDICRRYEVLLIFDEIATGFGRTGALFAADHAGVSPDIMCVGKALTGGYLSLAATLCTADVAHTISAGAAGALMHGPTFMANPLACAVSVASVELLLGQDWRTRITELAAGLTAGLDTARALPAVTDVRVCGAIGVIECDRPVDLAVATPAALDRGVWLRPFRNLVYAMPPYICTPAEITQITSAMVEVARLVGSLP
# HeLa = test: HeLa cell cytotoxicity, dose response, cytotoxicity control for MITF activator project, CellTiter-Glo luminescence, cherry-pick samples (AID 540259); assay type: functional, cell-based; conditions: Homo sapiens
# HEK293 [18] = test: HEK cell cytotoxicity by LDH release, dose response, cytotoxicity control for IDE activator project, fluorescence, HEK cells (AID 588440); assay type: functional, cell-based; conditions: Homo sapiens;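 also: cytotoxicity by LDH release measuring loss of membrane integrity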
# Melanocortin receptor 4 = Melanocortin receptor 4 (Homo sapiens, UniProt P32245); assay type: functional, cell-based;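 also: Cell-based assay with luminescence read-out, confirmatory dose-response testing for agonist activity of biased ligands at MC4R; human U2OS cells with tagged receptor and beta-arrestin; potency of agonists that increase receptor coupling to beta-arrestin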
# Melanocortin receptor 4, sequence (P32245 whole entry): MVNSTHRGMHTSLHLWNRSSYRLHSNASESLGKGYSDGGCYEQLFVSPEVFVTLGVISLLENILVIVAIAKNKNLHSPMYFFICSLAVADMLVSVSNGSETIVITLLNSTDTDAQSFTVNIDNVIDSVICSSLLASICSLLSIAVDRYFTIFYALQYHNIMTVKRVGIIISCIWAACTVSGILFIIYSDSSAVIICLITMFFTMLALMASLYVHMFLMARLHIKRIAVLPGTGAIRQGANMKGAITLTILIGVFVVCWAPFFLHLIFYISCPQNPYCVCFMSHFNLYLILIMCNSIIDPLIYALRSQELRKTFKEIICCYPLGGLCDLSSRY
# Insulin-degrading enzyme [19] = target: T4, Insulin-degrading enzyme (Homo sapiens, UniProt P14735); test: activators of endogenous IDE in HEK cells, dose response, cell-based, fluorescence polarization (AID 588439); assay type: functional
# T4 sequence (P14735 whole entry): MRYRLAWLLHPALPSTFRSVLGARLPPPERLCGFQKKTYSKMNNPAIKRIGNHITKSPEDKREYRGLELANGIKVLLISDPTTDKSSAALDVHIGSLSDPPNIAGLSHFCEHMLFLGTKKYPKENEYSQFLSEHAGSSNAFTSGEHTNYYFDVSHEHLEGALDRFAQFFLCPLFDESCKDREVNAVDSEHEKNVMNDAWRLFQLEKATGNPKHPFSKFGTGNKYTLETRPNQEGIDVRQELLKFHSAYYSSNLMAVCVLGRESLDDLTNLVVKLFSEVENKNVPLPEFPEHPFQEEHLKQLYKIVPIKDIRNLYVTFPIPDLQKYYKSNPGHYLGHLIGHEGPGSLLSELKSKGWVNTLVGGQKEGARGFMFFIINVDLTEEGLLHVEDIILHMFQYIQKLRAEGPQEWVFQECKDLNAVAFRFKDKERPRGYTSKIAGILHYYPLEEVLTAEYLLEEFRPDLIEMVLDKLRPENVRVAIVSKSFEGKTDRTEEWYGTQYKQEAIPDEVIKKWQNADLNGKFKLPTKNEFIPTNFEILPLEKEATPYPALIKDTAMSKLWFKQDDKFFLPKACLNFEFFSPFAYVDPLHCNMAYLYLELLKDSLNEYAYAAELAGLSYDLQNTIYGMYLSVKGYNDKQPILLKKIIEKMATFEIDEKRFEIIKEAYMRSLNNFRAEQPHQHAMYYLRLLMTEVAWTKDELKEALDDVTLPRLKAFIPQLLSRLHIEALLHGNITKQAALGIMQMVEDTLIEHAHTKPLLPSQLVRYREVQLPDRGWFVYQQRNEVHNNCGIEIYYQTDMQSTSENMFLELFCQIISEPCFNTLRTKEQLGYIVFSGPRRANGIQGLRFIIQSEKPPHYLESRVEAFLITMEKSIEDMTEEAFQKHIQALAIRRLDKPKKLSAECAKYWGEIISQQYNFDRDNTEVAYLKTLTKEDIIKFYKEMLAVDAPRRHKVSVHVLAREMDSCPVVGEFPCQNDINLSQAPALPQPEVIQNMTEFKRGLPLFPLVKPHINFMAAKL
# [20] = A Cell Based Secondary Assay To Explore Cytotoxicity of Compounds that Sensitize Mycobacterium Tuberculosis to Beta-Lactam Antibiotics.; assay type: functional
# HEK293 [21] = test: optical interference in Abeta FP readout, dose response, artefact control for IDE activator project, biochemical, fluorescence polarization (AID 588442); assay type: functional, cell-based; conditions: Homo sapiens
# Insulin-degrading enzyme [22] = target: T4, Insulin-degrading enzyme; test: activators of recombinant IDE enzyme, dose response, counter-screen for IDE activator project, biochemical, fluorescence polarization (AID 588681)
smiles,measurement,setting,value
COc1cc(/C=C2/SC(Nc3ccc(O)cc3)=NC2=O)ccc1O,IC50,[1],42.7 µM (inactive)
same,IC50,[2],20 µM (active)
same,CC50,[3],61.1 µM (active)
COc1ccc(/C=C(/C(=O)c2cccs2)N2C=CC=CC2=C(C#N)C#N)cc1,EC50,HEK293 [4],> 59.6 µM (inactive)
same,EC50,[5],> 120 µM (not active)
same,CC50,Vero,> 25 µM (active)
same,Absolute IC50 (CHOP),[6],10 µM
same,Absolute IC50 (XBP1),X-box-binding protein 1,10 µM
same,EC50,H4,> 120 µM (not active)
same,AC50,[7],8.18 µM (active)
same,EC50,HEK293 [8],> 59.6 µM (inactive)
same,EC50,[9],> 120 µM (not active)
CN(Cc1ccccc1)C1=CC(=[N+]2CCCCC2)CC(C)(C)C1,EC50,[10],> 60 µM (not active)
same,IC50,[1],> 80 µM (inactive)
same,AC50,A-375,84.3 µM (active)
same,EC50,[11],< 0.1 µM (active)
same,AC50,[12],2.46 µM (active)
same,EC50,cells,0.032 µM (active)
CCOC(=O)N1CCN(C(=O)C2CCN(c3ncnc4c3sc3cccc(F)c34)CC2)CC1,IC50,[13],1.49 µM (active)
same,IC50,[14],13.8 µM (active)
same,IC50,[15],1.05 µM (active)
same,IC50,[16],14.2 µM (inactive)
CC(=O)c1ccc(C(=O)NC2CCCN(Cc3ccccc3F)C2)s1 (stereo not given),AC50,[17],4.26 µM (active)
COc1ccc(C(=O)c2c[nH]c3ccccc23)cc1,AC50,HeLa,41.9 µM (active)
Cc1cc(C)c2sc(N(CCCN(C)C)C(=O)COc3ccc(Cl)cc3)nc2c1,IC50,HEK293 [18],26.2 µM (inactive)
same,EC50,Melanocortin receptor 4,> 89.2 µM (inactive)
same,EC50,Insulin-degrading enzyme [19],> 54.7 µM (inactive)
same,CC50,[20],> 40 µM (active)
same,EC50,HEK293 [21],> 55.9 µM (inactive)
same,EC50,Insulin-degrading enzyme [22],> 54.7 µM (inactive)
